Measurements: US20230365626A1, “Alloferon Peptide and Method Using the Same” (Industry Academy Cooperation Foundation of Sejong University, priority 2020, published 2023)
Square brackets hold non-standard residues; d marks the D form. Ends that are not written are not given here. Peptide text beside a SMILES is read from it.

Columns and labels:
[1] = tested on: cortical nerve cells; assay: Mechanism of action: receptor-mediated endocytosis, p62/LC3 western blot with Baf-A1; format: cell-based, ICR mouse; conditions: inhibitor administered alone (500 μM MβCD or 2 μM CP) with Baf-A1 + 20 μM peptide (FIG. 9B)
Protocol: (§1) In the pre-preparation process, 10-12 days after cell culture, the culture medium of the cerebral cortex nerve cells was changed to a minimum essential medium (MEM, Gibco, USA) without adding serum, and then was treated with N,N,N′,N′-tetrakis(2-pyridylmethyl)ethylene-diamine (TPEN, 2 μM, Sigma, USA), which is a zinc chelator, 50 μM chloroquine (CQ), 100 nM bafilomycin A-1 (Baf-A1), 500 μM methyl-beta-cyclodextrin (MβCD), and 2 μM chloropromazine (CP). Here, the MβCD is a caveolin-mediated endocytosis inhibitor, and CP is a clathrin-mediated endocytosis inhibitor. In addition, in the cell line experiments, the medium was changed to MEM according to the purpose of the experiments and was then treated with 40 μM chloroquine (CQ) and 100 nM bafilomycin A-1 (Baf-A1). During the pre-preparation process, the medium was treated with alloferon D-form peptides (0.2, 2, or 20 μM), free zinc (25 μM), TPEN (1 μM), and the like separately or together according to the purpose of each experiment.
Since the protein cannot pass through the cell membrane, the present inventors thought that the alloferon D-form peptides would be introduced through an endocytosis process. Thus, the present inventors investigated whether the alloferon D-form peptides act through a receptor-mediated endocytosis process. […]

[2] = tested on: cortical nerve cells; assay: Lysotracker staining (lysosomal pH); format: cell-based, ICR mouse
From the text: The cerebral cortex nerve cells of the mice were obtained by extracting the cerebrum from ICR mouse embryos of 13-14 day gestation. 6-7 hemispheres per culture dish were inoculated on 24-well culture dishes or 6-well culture dishes (SPL Life Science, South Korea) coated with 0.01% poly-D-lysine (Sigma, USA) prepared in advance. […]
Since it was confirmed through FIG. 2 that alloferon may promote the autophagic flux, whether the alloferon D-form peptides are involved in pH change in the lysosome was confirmed through lysotracker staining. […] It means that the stronger the fluorescence intensity, the lower the pH, and the weaker the fluorescence intensity, the higher the pH. It was confirmed that the pH in the lysosome was lowered by only the treatment with the alloferon D-form peptides compared to the control (FIG. 3A), and when treatment with 50 μM CQ was performed, the fluorescence intensity decreased compared to the control, and this was recovered by the treatment with the alloferon D-form peptides and zinc (FIG. 3B). […]

[3] = tested on: H4 cell line (GL-H4); assay: LC3-GFP puncta, autophagic flux blocked by chloroquine (fluorescence microscopy); format: cell-based; conditions: 50 μM CQ alone
Protocol: In addition, in this study, H4 cell line (GL-H4) and 293T cell line in which the GFP-LC3 plasmid was permanently infected were used. As a cell culture medium, 10% fetal bovine serum (Hyclone, USA) and a mixture solution of antibiotics and antifungal agents ([…], South Korea) were added to Minimum Essential Medium ([…]) and incubated in a cell incubator in which the conditions of 37° C. and 5% CO2 were maintained. […] Here, the MβCD is a caveolin-mediated endocytosis inhibitor, and CP is a clathrin-mediated endocytosis inhibitor. In addition, in the cell line experiments, the medium was changed to MEM according to the purpose of the experiments and was then treated with 40 μM chloroquine (CQ) and 100 nM bafilomycin A-1 (Baf-A1). During the pre-preparation process, the medium was treated with alloferon D-form peptides (0.2, 2, or 20 μM), free zinc (25 μM), TPEN (1 μM), and the like separately or together according to the purpose of each experiment. […] Protein quantification was performed using BCA protein assay kit (Pierce Biotechnology, USA). Then, 5× sample buffer (300 mM Tris, pH 6.8, 10% SDS, 50% glycerol, 0.1% BPB, 2.5% mercaptoethanol, and 100 mM DTT) was mixed with a quantified sample and denatured at 95° C. for 5 minutes to prepare the sample. […]

[4] = tested on: cerebral cortical nerve cells; assay: Zinpyr-1 staining (zinc in the lysosome); format: cell-based, ICR mouse; conditions: in combination with 1 μM TPEN, 4 hours
Protocol: Subsequently, the present inventors measured the zinc concentration in the cells to determine what effect the treatment with the alloferon D-form peptides has on the zinc concentration in the lysosome. To this end, specifically, the cerebral cortical nerve cells were washed once with MEM, and then the MEM was replaced with MEM containing 5 μM zinpyr-1, an intracellular zinc marker (Cayman Chemical, USA, Ex=492 nm, Em=527 nm) and 75 nM lysotracker, and left at 37° C. for 30 minutes. Thereafter, it was washed with fresh MEM and treated with individual reagents (alloferon D-form peptides) according to the experimental conditions. Then, the cells were fixed with 4% PFA (pH 7.4) for 15 minutes, washed twice with PBS (Biowest, France), and photographed with a fluorescent microscope.

[5] = tested on: TFEB, cathepsin B, and cathepsin D; assay: Western blot of TFEB, cathepsin B and cathepsin D expression; format: cell-based, ICR mouse; conditions: 1 μM TPEN with 20 μM alloferon D-form peptide, 4 hours (FIG. 5B)
Protocol: The cerebral cortex nerve cells of the mice were obtained by extracting the cerebrum from ICR mouse embryos of 13-14 day gestation. 6-7 hemispheres per culture dish were inoculated on 24-well culture dishes or 6-well culture dishes (SPL Life Science, South Korea) coated with 0.01% poly-D-lysine (Sigma, USA) prepared in advance. A cell culture medium, in which Dulbecco's Modified Eagle's Medium (DMEM, Gibco, USA) to which 20 mM glucose and 38 mM sodium bicarbonate were added and which was further supplemented with 5% fetal bovine serum (Hyclone, USA), 5% horse serum (Gibco, USA), and 1% glutamine, was used, and the cell culture medium was incubated in a cell incubator, in which the conditions of 37° C. and 5% CO2 were maintained, and was used in this experiment 10 to 12 days in vitro (DIV) after inoculation.
The present inventors had observed that the effect of enhancing the autophagic flux by the alloferon D-form peptides is achieved through the activity of cathepsin B and the decrease in the lysosomal pH, and thus, this time, the present inventors investigated through western blot analysis in order to find out whether there is a change in the amount of lysosomal protease expression. […]

[6] = In vitro plasma stability analysis (LC / mass spectrometry)
Protocol: In vitro plasma stability analysis was performed in order to compare the stability of L-form peptides and D-form peptides of the alloferon in the plasma of mice. […] The 10 μM alloferon L-form and D-form peptides were put into 100 μL of plasma, respectively, and then allowed to stand at 37° C. for 0, 5, 10, 30, 60, and 90 minutes. Thereafter, 500 μL of cold methanol was added thereto to precipitate proteins, and the proteins were lyophilized, followed by liquid chromatography and protein mass spectrometry.

[7] = tested on: β-amyloid aggregates (Aβ aggregates); assay: β-amyloid 1-42 protein aggregates in transfected 293T cells; format: cell-based
Protocol: (§2) In addition, in this study, H4 cell line (GL-H4) and 293T cell line in which the GFP-LC3 plasmid was permanently infected were used. As a cell culture medium, 10% fetal bovine serum (Hyclone, USA) and a mixture solution of antibiotics and antifungal agents (WellGene, South Korea) were added to Minimum Essential Medium (MEM, WellGene) and incubated in a cell incubator in which the conditions of 37° C. and 5% CO2 were maintained.
as §1
Subsequently, the present inventors investigated whether alloferon may dissolve the β-amyloid aggregates (Aβ aggregates) generated after the transient transfection of β-amyloid 1-42 (Aβ1-42) into 293T cell lines. To this end, EGFP-tagged 1-42Aβ (pEGFP-C1-Abeta 1-42) DNA was transiently transfected into 293T cell lines using Lipofectamine2000. For cell observation, GFP signals were analyzed through a fluorescence microscope, and ImageJ was used for size and number analysis of GFP-positive aggregates. pEGFP-C1-Abeta 1-42 DNA was purchased from Addgene. Western blot analysis was performed in the same manner as in Example 5, except that anti-6E10-antibodies (Biolegend, USA) were used as the antibodies (FIG. 7).

[8] = tested on: Huntington protein aggregates (Htt aggregates); assay: Mutant Huntington protein aggregates in transfected 293T cells; format: cell-based
Protocol: as §2, §1
Subsequently, the present inventors investigated whether alloferon may dissolve Huntington protein aggregates (Htt aggregates) generated after the transient transfection of mutant Huntington protein (mt-Htt) into 293T cell lines. To this end, GFP-tagged Huntington Q74 (GFP-mHttQ74) DNA was transiently transfected into 293T cell lines using Lipofectamine2000. For cell observation, GFP signals were analyzed through a fluorescence microscope, and ImageJ was used for size and number analysis of GFP-positive aggregates (FIG. 8A). GFP-mHttQ74 DNA was provided by Dr. David C. Rubinsztein of the University of Cambridge, England (Park et al., Neurobiol. Dis. 42: 242-251, 2011). […]

[9] = tested on: IL-6; assay: Plasma cytokine ELISA after intraperitoneal injection; format: in vivo, mice; conditions: 0.5, 2, 8, and 16 mg/kg intraperitoneally, after 1 hour
Protocol: (§3) Specifically, the alloferon D-form peptides were intraperitoneally injected at 0.5, 2, 8, and 16 mg/kg, and after 1 hour, blood was collected from the retro-orbital plexus of the mice. The collected blood was centrifuged at 2,000 g at 4° C. for 20 minutes using a centrifuge, and then only the supernatant was taken to obtain plasma. Thereafter, an experiment was performed using TNF-α and IL-6 Elisa kit (RayBiotech, USA). Specifically, 100 μL of plasma sample was put into a 96-well microplate coated with each of anti-TNF-α and anti-IL-6 antibodies, and then left while shaking at room temperature for 2 hours and 30 minutes. Thereafter, the sample was discarded, washed 4 times with a wash buffer provided from the kit, and then 100 μL of the biotin-binding secondary antibodies was reacted for 1 hour. Then, it was washed 4 times with a washing buffer, 100 μL of streptavidin solution was added thereto, left while shaking at room temperature for 45 minutes, and washed again 4 times with a washing buffer. After 100 μL of TMB One-step substrate was added thereto and left for 30 minutes, 50 μL of a reaction termination solution was added thereto, and then 450 nm absorbance was measured by a spectrophotometer.

[10] = Body weight change during intraperitoneal administration; format: in vivo, mice; conditions: 16 mg/kg intraperitoneal, 14 weeks (FIG. 10C)
[11] = tested on: TNF-α; conditions: 0.5, 2, 8, and 16 mg/kg intraperitoneally, after 1 hour
Protocol: as §3

[12] = 100 nM bafilomycin A1 alone, 12 hours
[13] = treatment alone, without Baf-A1

In the case of methyl-beta-cyclodextrin [MβCD], the “effect of the alloferon D-form peptides on autophagic flux” value [1] is reported as “not changed”.

In the case of `CCN(CC)CCCC(C)Nc1ccnc2cc(Cl)ccc12` (stereo not shown) [CQ, chloroquine], the “lysotracker fluorescence intensity compared to the control” value ([2]; 50 μM CQ alone, 4 hours) is reported as “decreased” and the “number and size of LC3 puncta” value [3] is reported as “significantly increased”.

For `c1ccc(CN(CCN(Cc2ccccn2)Cc2ccccn2)Cc2ccccn2)nc1` [TPEN, N,N,N′,N′-tetrakis(2-pyridylmethyl)ethylene-diamine], the “Zinpyr-1 fluorescence increased by the alloferon D-form peptides” value [4] was “reduced” and the “amounts of TFEB, cathepsin B, and cathepsin D” value [5] was “reduced”.

In the case of `CN(C)CCCN1c2ccccc2Sc2ccc(Cl)cc21` [CP, chloropromazine], the “effect of the alloferon D-form peptides on autophagic flux” value [1] is reported as “not changed”.

With “HGVSGHGQHGVHG [alloferon L-form peptides]” the “degradation / stability in plasma” value ([6]; mouse plasma, 10 μM, 37° C., 0-90 minutes) was “degraded from an early time in plasma” and the half-life ([6]; mouse, plasma) was 51.8 min.

In the case of `CO/C1=C\C(C)=C\[C@@H](C)[C@@H](O)[C@@H](C)C/C(C)=C/C=C/[C@H](OC)[C@@H]([C@@H](C)[C@@H](O)[C@H](C)[C@@]2(O)C[C@@H](O)[C@H](C)[C@@H](C(C)C)O2)OC1=O` [Baf-A1, bafilomycin A-1], the β-amyloid protein aggregates [7, 12] is reported as “increased” and the Huntington protein aggregates [8, 12] is reported as “increased”.

In the case of `[Zn]` [zinc], the “β-amyloid protein aggregates increased by Baf-A1 (fluorescence)” value ([7]; 100 nM bafilomycin A1 + 2 or 20 μM peptide or 25 μM zinc, 12 hours (FIG. 7A)) is reported as “decreased”, the “β-amyloid aggregates increased by Baf-A1 (western blot)” value ([7]; 100 nM bafilomycin A1 + peptide or 25 μM zinc, 12 hours (FIG. 7B)) is reported as “decreased” and the “β-amyloid protein aggregates compared to the control group” value [7, 13] is reported as “no change”. For the same compound, the “Huntington protein aggregates increased by Baf-A1” value ([8]; 100 nM bafilomycin A1 + 20 μM peptide or 25 μM zinc, 12 hours (FIG. 8)) was “decreased”, the “Huntington protein aggregates compared to the control” value [8, 13] was “no change” and the “lysotracker fluorescence intensity decreased by 50 μM CQ” value ([2]; 20 μM peptide or 25 μM zinc + 50 μM chloroquine, 4 hours (FIG. 3B)) was “recovered”.

With `CC(C)[C@@H](NC(=O)CNC(=O)[C@H](N)Cc1c[nH]cn1)C(=O)N[C@H](CO)C(=O)NCC(=O)N[C@H](Cc1c[nH]cn1)C(=O)NCC(=O)N[C@H](CCC(N)=O)C(=O)N[C@H](Cc1c[nH]cn1)C(=O)NCC(=O)N[C@@H](C(=O)N[C@H](Cc1c[nH]cn1)C(=O)NCC(=O)O)C(C)C` [alloferon D-form peptides] (H-[dH]G[dV][dS]G[dH]G[dQ][dH]G[dV][dH]G-OH; N-terminus and C-terminus assumed) the “changes in IL-6 in plasma compared to the control” value [9] was “not observed”, the “amount of changes in the body weights of mice” value [10] was “did not change” and the “changes in TNF-α in plasma compared to the control” value [11] was “not observed”.
